Assay results: patent publication US20210260101A1, “POTENTIATED ANTIBIOTIC COMPOSITIONS AND METHODS OF USE FOR TREATING BACTERIAL INFECTIONS AND BIOFILMS” (priority 2018, published 2021)
Where “and” joins values, the source holds several entries; their conditions need not be identical. Equal entries are not always repeated. Where two headings read alike, the source gives them in different places.

Columns and labels:
E. coli 25922 = experiment: MIC/potentiation against E. coli 25922; format: cell-based, Escherichia coli; conditions: 3×10^5 CFU/mL
PA OU19 = experiment: Checkerboard assay, PA OU19; format: cell-based, Pseudomonas aeruginosa
Description: (§1) Cells were grown at 35° C. with shaking. The OD600 (optical density at 600 nm) was monitored and recorded for each sample over 24 hr. Each checkerboard trial was done in triplicate using sterile Greiner CellStar™ flat bottom polystyrene plates, catalog #655180. Each growth curve was done in duplicate.

MRSE ATCC 29887 biofilm = experiment: MBEC assay (challenge plate MIC, recovery plate MBEC), MRSE 29887; format: cell-based, Staphylococcus epidermidis
Description: A sub-culture of MRSE was grown from the cryogenic stock on an agar plate overnight at 35° C. The MBEC plate was inoculated with 150 μL of TSB/well plus 1 μL of a stock culture made from 1 colony/mL of MRSE in TSB. The MBEC inoculator plate was sealed with Parafilm and incubated for 24 hours at 35° C. with 100 rpm shaking to facilitate biofilm formation on the prongs. Following biofilm formation, the lid of the MBEC inoculator was removed and placed in a rinse plate containing 200 μL of sterile PBS for 10 sec. Biofilm growth check (BGC) was performed by breaking a few prongs off using sterile pliers, submerging them in 1 mL PBS, and sonicating them on high for 30 minutes to dislodge the biofilm. After sonication, the biofilm solution was serial-diluted and spot-plated on agar plates for CFU counting to determine the biofilm density on the prongs.
A challenge plate was made in a new pre-sterilized 96-well plate in a checkerboard-assay pattern to test the synergistic activity of BPEI+antibiotic combinations. […] After incubation, the OD600 (optical density at 600 nm) of the recovery plate was measured using a Tecan Infinite M20 plate reader to determine the MBEC of the antimicrobial compounds tested. […] Likewise, the OD600 for the base of the challenge plate was measured […] to determine the MICs of the antimicrobial compounds.

P. aeruginosa 27853 = experiment: Checkerboard assay, P. aeruginosa 27853; format: cell-based, Pseudomonas aeruginosa
Description: (§2) Cells were grown at 37° C. The change in OD600 (optical density at 600 nm) was measured and recorded after 24 hr of treatment. Each checkerboard trial was done in triplicate using sterile Greiner CellStar™ flat bottom polystyrene plates, catalog #655180.
as §1

[1] = tested on: biofilms of P. aeruginosa BAA-47; experiment: MBEC assay (Calgary biofilm device), PA BAA-47; format: cell-based, Pseudomonas aeruginosa
Description: A sub-culture of P. aeruginosa BAA-47 was grown from the cryogenic stock on an agar plate overnight at 35° C. The MBEC plate was inoculated with 150 μL of CAMHB/well plus 1 μL of a stock culture made from 1 colony/mL of P. aeruginosa BAA-47 in CAMHB (˜5×10^5 CFU/mL). The MBEC inoculator plate was sealed with Parafilm™ and incubated for 24 hr at 35° C. with 100 rpm shaking to facilitate biofilm formation on the prongs. Following biofilm formation, the lid of the MBEC inoculator was removed and placed in a rinse plate containing 200 μL of sterile PBS for 10 sec. […] Antimicrobial solutions were serial-diluted and added to the 96-well plate, which contained 200 μL of CAMHB per well. After the rinsing step, the preformed biofilm prong lid was immediately transferred into the prepared antimicrobial challenge plate and incubated at 35° C. for 20-24 hr. […] After incubation, the OD600 of the recovery plate was measured using a Tecan Infinite M20 plate reader to determine the MBEC of the antimicrobial compounds tested. […] Likewise, the OD600 for the base of the challenge plate was measured to determine the MICs of the antimicrobial compounds. The fractional inhibitory concentration index (FICI) calculated based on the established equation was used to determine synergy (FICI≤0.5), additivity (0.5<FICI<1), and no synergy (FICI≥1).

PA OU15 = experiment: Checkerboard assay, PA OU15; format: cell-based, Pseudomonas aeruginosa
Description: as §1

[2] = tested on: MRSE 35984 biofilm formation; experiment: Crystal violet biofilm formation inhibition (MBIC); format: cell-based, Staphylococcus epidermidis
Description: Additionally, higher concentrations of BPEI corresponded to greater inhibition of biofilm formation.

PA OU22 = experiment: Checkerboard assay, PA OU22; format: cell-based, Pseudomonas aeruginosa
Description: as §1

MRSA USA 300 ATCC 1717 = experiment: Checkerboard MIC assay against MRSA USA300 (Example 1); format: cell-based, Staphylococcus aureus; conditions: MRSA USA300
[3] = tested on: clinical isolates OU15, OU19, and OU22; experiment: Checkerboard assay, isolates OU15, OU19 and OU22 reported together; format: cell-based, Pseudomonas aeruginosa; conditions: Pseudomonas aeruginosa
Description: as §1

[4] = tested on: P. aeruginosa OU1 (PA OU1); experiment: Checkerboard assay, clinical isolate PA OU1; format: cell-based, Pseudomonas aeruginosa
Description: as §2, §1

PA OU12 = experiment: Checkerboard assay, PA OU12; format: cell-based, Pseudomonas aeruginosa
Description: as §1

[5] = tested on: P. aeruginosa ATCC BAA-47; experiment: Checkerboard assay (Example 5), PA BAA-47; format: cell-based, Pseudomonas aeruginosa
Description: as §1

[6] = tested on: P. aeruginosa PA01 ATCC BAA-47; experiment: MIC/potentiation against P. aeruginosa PA01 (Example 1); format: cell-based, Pseudomonas aeruginosa; conditions: higher inoculum, 5 × 10^7 CFU/ml

MIC (E. coli 25922; Escherichia coli, 25922, read-out: piperacillin MIC with 8 μg/mL (13.6 μM) of BPEI600): 0.125 µg/mL
MIC (E. coli 25922; Escherichia coli, 25922, read-out: piperacillin MIC with 32 μg/mL (34 μM) of PEG350-BPEI600): 0.25 µg/mL
MIC (E. coli 25922; Escherichia coli, 25922, alone, read-out: piperacillin MIC): 1 µg/mL
PIP MIC in combination with BPEI600 (PA OU19; BPEI600 amount in same cell): 1 µg/mL
MIC (PA OU19; Pseudomonas aeruginosa, PA OU19, agent alone, read-out: MIC): > 256 µg/mL
MIC (MRSE ATCC 29887 biofilm; Staphylococcus epidermidis, MRSE 29887, agent alone): 512 µg/mL
PIP MIC in combination with 600 Da BPEI (P. aeruginosa 27853; BPEI amount in same cell): 0.25 µg/mL
PIP MIC in combination with PEG-BPEI (P. aeruginosa 27853; PEG-BPEI amount in same cell): 0.5 µg/mL
MIC (P. aeruginosa 27853; Pseudomonas aeruginosa, PA 27853, agent alone, piperacillin only, no tazobactam): 4 µg/mL
PIP MIC in combination with BPEI600 (PA OU15; BPEI600 amount in same cell): 32 µg/mL
MIC (PA OU15; Pseudomonas aeruginosa, PA OU15, agent alone, read-out: MIC): 128 µg/mL
PIP MIC in combination with BPEI600 (PA OU22; BPEI600 amount in same cell): 4 µg/mL
MIC (PA OU22; Pseudomonas aeruginosa, PA OU22, agent alone, read-out: MIC): > 256 µg/mL
MIC with 4 μg/ml (6.75 μM) 600-Da BPEI (MRSA USA 300 ATCC 1717): 1 µg/mL
MIC (MRSA USA 300 ATCC 1717; Staphylococcus aureus, agent alone, read-out: MIC of antibiotic only): 4 µg/mL
MIC ([3]; read-out: piperacillin MIC with BPEI600 at ¼th of its MIC value): 1 to 4 µg/mL
MIC ([3]; isolates OU15, OU19, OU22, agent alone (data not shown), read-out: MIC): > 256 µg/mL
PIP MIC in combination with 600 Da BPEI [4]: 8 µg/mL and 4 µg/mL
PIP MIC in combination with PEG-BPEI ([4]; PEG-BPEI amount in same cell): 4 µg/mL
MIC ([4]; Pseudomonas aeruginosa, PA OU1, agent alone, piperacillin only, no tazobactam): 64 µg/mL
PIP MIC in combination with 600 Da BPEI ([4]; listed as PIP): 4 µg/mL
PIP MIC in combination with BPEI600 (PA OU12; BPEI600 amount in same cell): 8 µg/mL
MIC (PA OU12; Pseudomonas aeruginosa, PA OU12, agent alone): 128 µg/mL
PIP MIC in combination with BPEI600 ([5]; BPEI600 amount in same cell): 1 µg/mL
MIC ([5]; Pseudomonas aeruginosa, PA BAA-47, agent alone): 4 µg/mL
MIC, antibiotic + 0.5 μg/ml (0.85 μM) 600-Da BPEI [6]: 16 µg/mL
MIC, antibiotic + 4 μg/ml (4.25 μM) PEG350BPEI600 [6]: 32 µg/mL
SMILES: CCN1CCN(C(=O)N[C@@H](C(=O)N[C@@H]2C(=O)N3[C@@H]2SC(C)(C)[C@@H]3C(=O)O)c2ccccc2)C(=O)C1=O [piperacillin]
piperacillin concentration eradicating biofilms with 128 μg/mL BPEI (MRSE ATCC 29887 biofilm; MRSE 29887 biofilm): 64 µg/mL
piperacillin MBEC in combination with BPEI600 ([1]; 16 μg/mL of BPEI): 8 µg/mL
MBEC ([1]; P. aeruginosa BAA-47 biofilm, agent alone): 256 µg/mL
piperacillin concentration preventing biofilm growth with 8 μg/mL of BPEI [2]: 16 µg/mL
piperacillin concentration preventing biofilm growth with 16 μg/mL of BPEI [2]: 8 µg/mL
Minimum Biofilm Inhibitory Concentration (MBIC) ([2]; agent alone, 24 hours): 64 µg/mL
